Assay results as given in US6670367B1, “Azinyloxy, and phenoxy-diaryl-carboxylic acid derivatives, their preparation and use as mixed ETA/ETB endothelin receptor antagonists” (Abbott GmbH & Co., KG, priority 1996, dated 2003).

Tests used:
[1] = molecular target: T1, human ETA receptor (Homo sapiens, UniProt P25101); test: ETA receptor binding assay (125I-ET1, membranes of receptor-expressing CHO cells); settings: cloned human ETA receptor, CHO cell membranes, 25 pM 125I-ET1, 25° C., 30 min
T1 construct: expressed in transfected cells; host or cells: CHO cells (membrane preparation)
T1 sequence (P25101 21-427): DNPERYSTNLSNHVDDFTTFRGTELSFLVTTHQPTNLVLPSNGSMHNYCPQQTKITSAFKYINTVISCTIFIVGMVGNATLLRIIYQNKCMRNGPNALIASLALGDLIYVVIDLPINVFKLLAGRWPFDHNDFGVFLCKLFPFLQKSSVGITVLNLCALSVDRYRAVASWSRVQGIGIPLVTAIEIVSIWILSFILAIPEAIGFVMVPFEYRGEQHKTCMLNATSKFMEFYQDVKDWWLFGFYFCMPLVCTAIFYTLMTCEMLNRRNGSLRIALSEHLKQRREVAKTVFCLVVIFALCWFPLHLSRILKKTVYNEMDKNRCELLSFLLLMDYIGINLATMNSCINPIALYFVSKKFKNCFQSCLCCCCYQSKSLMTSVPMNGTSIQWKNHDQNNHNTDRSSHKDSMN
Procedure: (§1) Cloned human ETA or ETB receptor-expressing CHO cells were employed for binding studies.
(§2) The ETA or ETB receptor-expressing CHO cells were grown in DMEM NUT MIX F12 medium (Gibco, No. 21331-020) with 10% fetal calf serum (PAA Laboratories GmbH, Linz, No. A15-022), 1 mM glutamine (Gibco No. 25030-024), 100 U/ml penicillin and 100 μg/ml streptomycin (Gibco, Sigma No. P-0781). After 48 hours, the cells were washed with PBS and incubated with 0.05% trypsin-containing PBS at 37° C. for 5 minutes. Neutralization with medium was then carried out, and the cells were collected by centrifugation at 300×g.
(§3) For the membrane preparation, the cells were adjusted to a concentration of 10^8 cells/ml of buffer (50 mM tris.HCL buffer, pH 7.4) and then disintegrated by ultrasound (Branson Sonifier 250, 40-70 seconds/constant/output 20).
(§4) For the ETA and ETB receptor binding assays, the membranes were suspended in incubation buffer (50 mM tris-HCl, pH 7,4 with 5 mM MnCl2, 40 μg/ml bacitracin and 0.2% BSA) at a concentration of 50 μg of protein per assay mixture, and incubated with 25 pM ^125I-ET1 (ETA receptor assay) or 25 pM ^125I-ET3 (ETB receptor assay) in the presence and absence of test substance at 25° C. The nonspecific binding was determined with 10^−7 M ET1. Filtration was carried out after 30 min through GF/B glassfiber filters (Whatman, England) in a Skatron cell collector (Skatron, Lier, Norway) to separate free and bound radio ligands, and the filters were washed with ice-cold tris-HCl buffer, pH 7.4 with 0.2% BSA. The radioactivity collected on the filters was quantified using a
(§5) Packard 2200 CA liquid scintillation counter.

[2] = molecular target: T2, human ETB receptor (Homo sapiens, UniProt P24530); test: ETB receptor binding assay (125I-ET3, membranes of receptor-expressing CHO cells); settings: cloned human ETB receptor, CHO cell membranes, 25 pM 125I-ET3, 25° C., 30 min
T2 construct: expressed in transfected cells; host or cells: CHO cells (membrane preparation)
T2 sequence (P24530 27-442): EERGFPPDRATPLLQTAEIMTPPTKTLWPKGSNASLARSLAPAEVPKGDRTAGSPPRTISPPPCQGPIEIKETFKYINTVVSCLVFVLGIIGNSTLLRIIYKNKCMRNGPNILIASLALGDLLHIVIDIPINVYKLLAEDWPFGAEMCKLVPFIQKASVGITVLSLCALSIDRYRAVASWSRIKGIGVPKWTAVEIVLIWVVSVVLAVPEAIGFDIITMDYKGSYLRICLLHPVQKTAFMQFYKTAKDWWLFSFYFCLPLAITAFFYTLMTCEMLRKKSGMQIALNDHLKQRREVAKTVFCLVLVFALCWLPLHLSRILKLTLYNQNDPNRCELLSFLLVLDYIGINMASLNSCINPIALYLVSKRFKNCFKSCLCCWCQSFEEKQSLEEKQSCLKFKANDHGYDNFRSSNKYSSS
Procedure: as §1, §2, §3, §4, §5

Row | Structure (SMILES) | Ki [1] [nM] | melting point | Ki [2] [nM]
1 | COc1ccc(CCOC(c2ccc(Cl)cc2)(c2ccc(Cl)cc2)C(Oc2nc(OC)c3c(n2)OCC3)C(=O)O)cc1OC (stereo not drawn) [Compound I-635, 2-(4-Methoxy-5,6-dihydrofuro(2,3d)-2-pyrimidinyloxy)-3-(2-(3,4-dimethoxyphenyl)ethoxy)-3,3-di(4-chlorophenyl)propionic Acid] | 210 | 100 to 110 °C | 126
2 | Cc1cc(C)nc(OC(C(=O)O)C(OCCc2ccc(Cl)cc2)(c2ccccc2)c2ccccc2)n1 (stereo not drawn) [Compound I-713, 2-(4,6-Dimethyl-2-pyrimidinyloxy)-3-(2-(4-chlorophenyl)ethoxy)-3,3-diphenylpropionic Acid] | 20 | 108 °C (dec.) | 96
3 | COc1cc(CCOC(c2ccc(Cl)cc2)(c2ccc(Cl)cc2)C(Oc2nc(OC)c3c(n2)OCC3)C(=O)O)cc(OC)c1 (stereo not drawn) [Compound I-593, 2-(4-Methoxy-5,6-dihydrofuro(2,3d)-2-pyrimidinyloxy)-3-(2-(3,5-dimethoxyphenyl)ethoxy)-3,3-di(4-chlorophenyl)propionic Acid] | 300 | 90 to 100 °C | 160
4 | COc1cc(C)nc(OC(C(=O)O)C(OCCc2ccc(OC)c(OC)c2)(c2ccc(Cl)cc2)c2ccc(Cl)cc2)n1 (stereo not drawn) [Compound I-699, 2-(4-Methoxy-6-methyl-2-pyrimidinyloxy)-3-(2-(3,4-dimethoxyphenyl)ethoxy)-3,3-di(4-chlorophenyl)propionic Acid] | 230 | 100 to 110 °C | 130
5 | COc1cc(CCOC(c2ccccc2)(c2ccccc2)C(Oc2nc3c(c(OC)n2)CCC3)C(=O)O)cc(OC)c1 (stereo not drawn) [Compound I-321] | 340 |  | 290

These reach a lower Ki [1]. Values come first.

Row | Ki [1] [nM] | melting point | Ki [2] [nM] | Structure (SMILES)
6 | 3.5 | 125 to 130 °C (dec.) | 7.2 | COc1ccc(CCOC(c2ccccc2)(c2ccccc2)C(Oc2nc(C)cc(C)n2)C(=O)O)cc1OC (stereo not drawn) [Compound I-445]
7 | 11 | 128 to 130 °C | 54 | COc1nc(OC(C(=O)O)C(OCCc2ccc(C)cc2)(c2ccccc2)c2ccccc2)nc2c1CCO2 (stereo not drawn) [Compound I-370, 2-(4-Methoxy-5,6-dihydrofuro(2,3d)-2-pyrimidinyloxy)-3-(2-(4-methylphenyl)ethoxy)-3,3-diphenylpropionic Acid]
8 | 6 |  | 23 | COc1ccc(CCOC(c2ccccc2)(c2ccccc2)C(Oc2nc(C)cc(C)n2)C(=O)O)cc1 (stereo not drawn) [Compound I-585, 2-(4,6-Dimethyl-2-pyrimidinyloxy)-3-(2-(4-methoxyphenyl)ethoxy)-3,3-diphenylpropionic Acid]
9 | 1.3 |  | 4.1 | COc1ccc(CCOC(c2ccccc2)(c2ccccc2)[C@H](Oc2nc(C)cc(C)n2)C(=O)O)cc1OC [I-445 (S) enantiomer, (S)-2-(4,6-Dimethylpyrimidin-2-yloxy)-3-(2-(3,4-dimethoxyphenyl)ethoxy)-3,3-diphenylpropionic Acid]
